Here are results for 24 molecules from US8530475B2, “Bridged aryl piperazines derivatives useful for the treatment of CNS, GI-urinary and reproductive disorders” (Janssen Pharmaceutica NV, priority 2006, dated 2013).

Each structure is given as a SMILES string. “And” between values parts separate entries of the source, which are not always exact repeats. Equal values may be shown once. Read-outs that look alike come from different tables or passages of the source.

Test [1] addresses T1, human 5HT1A receptor (Homo sapiens, UniProt P08908).
T1 construct: purchased Perkin Elmer; host or cells: HEK293 cells, stably transfected (membranes)
T1 sequence (P08908 1-422): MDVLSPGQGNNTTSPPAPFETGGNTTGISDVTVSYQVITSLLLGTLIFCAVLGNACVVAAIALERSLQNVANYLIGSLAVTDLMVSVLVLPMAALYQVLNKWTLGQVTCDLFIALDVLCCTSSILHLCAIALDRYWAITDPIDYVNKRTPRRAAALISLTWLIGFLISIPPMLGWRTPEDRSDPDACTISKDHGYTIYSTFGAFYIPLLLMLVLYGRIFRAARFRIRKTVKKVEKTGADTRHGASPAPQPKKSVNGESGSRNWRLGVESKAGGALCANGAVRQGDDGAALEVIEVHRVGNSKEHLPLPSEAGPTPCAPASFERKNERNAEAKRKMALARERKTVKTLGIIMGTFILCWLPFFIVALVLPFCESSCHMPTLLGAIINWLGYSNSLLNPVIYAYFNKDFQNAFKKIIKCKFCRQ
The test can be described thus: [35S]GTPγS binding for 5-HT1A receptor inhibition (antagonist mode). To be noted: Example 78, HEK293 membranes, antagonist mode with serotonin 100 nM, <5 = not active at up to 10 μM; for IC50: read-out: h5HT1A Antagonist pIC50 (converted). The class given is biochemical. Here is the method:
Compounds showing affinity at the 5-HT1A receptor were tested for functional agonism and antagonism in a [^35S]GTPγS (guanine triphosphate (non-hydrolysable, labelled with ^35S) binding assay on membranes of HEK293 cells permanently transfected with human 5HT1A receptor (Perkin Elmer, USA).
Frozen membranes were thawed, briefly homogenized and were diluted in incubation buffer, 100 mM NaCl, 0.3 mM MgCl2 and 10 μM guanine diphosphate (GDP), pH 7.4-7.5) supplemented with 10 μg/ml saponin. Assay mixtures contained 10 μg of membrane protein and test compound, buffer, or control agonist (serotonin, 10 μM). For the antagonistic assay, control agonist was present in all wells containing compound at a sub-maximal concentration (serotonin, 100 nM). After 20 minutes pre-incubation at 37° C., [^35S]GTPγS was added to a final concentration of 0.25 nM, briefly shaken and further incubated for another 20 minutes. Reactions were terminated by rapid vacuum filtration through GF/B unifilter plates using a Packard Harvester. Filters were washed three times with wash buffer (10 mM NaH2PO4, 10 mM Na2HPO4, pH 7.4), dried overnight and bound counts were measured in a Topcount Scintillation Counter in the presence of Microscint O. % Specific Binding was calculated and curves were plotted with help of in house software where pIC50 values were determined and Kb values were calculated.
Background: Binding of GTPγS marks nucleotide exchange on a G protein.

For another test, the target named is T2, human 5-HTT (Homo sapiens, UniProt P31645).
T2 construct: purchased Perkin-Elmer, USA; host or cells: HEK293 cells, stably transfected (membranes)
T2 sequence (P31645 whole entry): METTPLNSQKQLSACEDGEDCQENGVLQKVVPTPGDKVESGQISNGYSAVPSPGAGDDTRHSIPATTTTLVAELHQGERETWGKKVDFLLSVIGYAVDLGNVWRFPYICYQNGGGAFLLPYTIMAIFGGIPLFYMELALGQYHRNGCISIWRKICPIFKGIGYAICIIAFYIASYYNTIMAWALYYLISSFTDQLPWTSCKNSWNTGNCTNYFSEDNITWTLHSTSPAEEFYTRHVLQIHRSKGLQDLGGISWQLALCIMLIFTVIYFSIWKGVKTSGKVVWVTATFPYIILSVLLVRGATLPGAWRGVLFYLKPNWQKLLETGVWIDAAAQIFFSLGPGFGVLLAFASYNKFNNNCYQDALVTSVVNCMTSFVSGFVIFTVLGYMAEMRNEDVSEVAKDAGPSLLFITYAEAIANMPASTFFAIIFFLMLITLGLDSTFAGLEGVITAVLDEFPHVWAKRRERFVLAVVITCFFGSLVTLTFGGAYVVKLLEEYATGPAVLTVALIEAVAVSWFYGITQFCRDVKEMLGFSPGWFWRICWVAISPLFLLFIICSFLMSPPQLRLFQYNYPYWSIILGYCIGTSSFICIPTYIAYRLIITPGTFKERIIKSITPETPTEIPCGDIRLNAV
Nature of the test: Radioligand binding to 5-HTT (serotonin transporter, SERT), [3H]Paroxetine. To be noted: membranes of HEK293 cells, [3H]Paroxetine 0.5 nM, <5 = not active at up to 10 μM. Here is the method:
For 5-HTT binding, frozen membranes of HEK293 cells stably-transfected with human 5-HTT (Perkin-Elmer, USA) were thawed on ice, briefly homogenised and resuspended in Tris-HCl buffer (50 mM, pH 7.4) supplemented with NaCl (120 mM) and KCl (5 mM) at a concentration of 50 μg protein per incubation mixture. The membrane suspension was added to the test compound together with [^3H]Paroxetine (0.5 nM) in a total volume of 250 μl and incubated (60 min, 25° C.). Non-specific binding was determined in the presence of imipramine (1 μM). Filtration was done over pre-soaked GF/B unifilters (0.01% PEI) and washed as above with the Tris-HCl salt buffer used for the incubation. Specific binding was calculated and sigmoidal curves were plotted by an internally-developed software program based on S-plus software. Ki values were calculated using the Cheng-Prusoff equation.

The target of test [2] is T1, human 5HT1A receptor. The test can be described thus: Radioligand binding to the 5-HT1A receptor, [3H]8-OH-DPAT. To be noted: Example 77, membranes of HEK293 cells, [3H]8-OH-DPAT 0.5 nM, <5 = not active at up to 10 μM; for IC50: read-out: h5HT1A pIC50 (converted). The protocol: Frozen membranes of HEK293 cells, stably-transfected with human 5-HT1A receptor (Perkin Elmer) were thawed on ice, briefly homogenised with an Ultra Turrax homogeniser and then suspended in Tris-HCl buffer (50 mM pH 7.7) supplemented with CaCl2 (4 mM) at an appropriate pre-determined protein concentration (5-10 μg protein per incubation mixture). Together with [^3H]8-OH-DPAT (0.5 nM final concentration; Perkin Elmer, USA), the membrane suspension was added to the test compound and incubated (30 min at 37° C.) in a total volume of 400 μl. Non-specific binding was determined in the presence of Spiroxatrine (1 μM). Free radioligand was separated from the radioligand-receptor complex by means of rapid vacuum filtration over GF/B unifilter plates with a Packard Harvester Filtration Unit. Unifilter plates were washed with ice cold Tris-HCl buffer (50 mM, pH 8.0) and then dried overnight. Bound counts were measured in a Topcount Scintillation Counter in the presence of Microscint O.

Where [3] appears, read: Example 77, read-out: h5HTT pIC50 (converted).

For the molecule `Cc1cc2c(OCCCN3C[C@@H]4C/C=C\C[C@H]3CN4c3ccc4ccccc4c3)cccc2[nH]1` [ID No. 138, 7-[3-(2-Methyl-1H-indol-4-yloxy)-propyl]-9-naphthalen-2-yl-7,9-diaza-bicyclo[4.2.2]dec-3-ene], the results for the IC50 on human 5HT1A receptor [1], on human 5-HTT (setting [3]) and at human 5HT1A receptor [2] were 11 µM, 0.0282 µM and 0.282 µM, respectively.

With `C1=C\C[C@H]2CN[C@@H](C/1)CN2c1cccc2ccccc12` [compound 119], the IC50 is 0.0708 µM on human 5-HTT (h5HTT pIC50, Example 77) and > 10 µM at human 5HT1A receptor [2].

Regarding `C1=C\C[C@H]2CN[C@@H](C/1)CN2c1cccc2ncccc12` [compound 137], the figures for the IC50 at human 5HT1A receptor [1], at human 5-HTT (setting [3]) and on human 5HT1A receptor [2] were > 10 µM, 0.676 µM and 2.34 µM, respectively.

Regarding `Cc1cc2c(OC[C@@H](O)CN3CC4CC=CCC3CN4c3ccc4ccccc4c3)cccc2[nH]1` (stereo partly drawn) [compound 155], the IC50 at human 5HT1A receptor [1] was > 10 µM and 6.31 µM; on human 5-HTT (setting [3]), 0.11 µM and 0.214 µM; on human 5HT1A receptor [2], 0.0525 µM and 0.115 µM.

Consider `COc1cc2c(cc1OC)C1=NO[C@@H](CN3C[C@@H]4C/C=C\C[C@H]3CN4c3ccc4ccccc4c3)C1CO2` (stereo partly drawn) [compound 140], for which the IC50 is 0.741 µM on human 5-HTT (setting [3]) and > 10 µM on human 5HT1A receptor [2].

With `C#CCN1C[C@@H]2C/C=C\C[C@H]1CN2c1ccc2ccccc2c1` [compound 41], the results for the IC50 at human 5-HTT (setting [3]) and at human 5HT1A receptor [2] were 0.0851 µM and > 10 µM, respectively.

As to `COC(=O)c1cc2c(OC[C@@H](O)CN3C[C@@H]4C/C=C\C[C@H]3CN4c3ccc4ccccc4c3)ccc(Cl)c2[nH]1` [compound 128], the IC50 was > 10 µM on human 5HT1A receptor [1], 0.0302 µM at human 5-HTT (setting [3]) and 0.562 µM on human 5HT1A receptor [2].

Consider `COC(=O)c1cc2c(OC[C@@H](O)CN3C[C@@H]4C/C=C\C[C@H]3CN4c3ccc4ccccc4c3)ccc(C)c2[nH]1` [compound 127], for which the values for the IC50 on human 5HT1A receptor [1], at human 5-HTT (setting [3]) and at human 5HT1A receptor [2] were > 10 µM, 0.0398 µM and 0.363 µM, respectively.

Regarding `COC(=O)c1cc2c(OC[C@@H](O)CN3C[C@@H]4C/C=C\C[C@H]3CN4c3ccc4ccccc4c3)cccc2[nH]1` [compound 126], the IC50 at human 5HT1A receptor [1] is > 10 µM; at human 5-HTT (setting [3]) it was 0.024 µM; on human 5HT1A receptor [2] it was 0.0501 µM.

For `Cc1cc2c(OC[C@@H](O)CN3C[C@@H]4C/C=C\C[C@H]3CN4c3cnc4ccccc4c3)cccc2[nH]1` [compound 158], the IC50 is 1.15 µM at human 5HT1A receptor [1], 0.251 µM at human 5-HTT (setting [3]) and 0.126 µM at human 5HT1A receptor [2].

As to `Cc1cc2c(OC[C@H](O)CN3CC4CC=CCC3CN4c3ccc4ccccc4c3)cccc2[nH]1` (stereo partly drawn) [compound 153], the IC50 was > 10 µM at human 5HT1A receptor [1], 0.0575 µM at human 5-HTT (setting [3]) and 0.933 µM at human 5HT1A receptor [2].

Regarding `C1=C\C[C@H]2CN(c3ccc4ccccc4c3)[C@@H](C/1)CN2C1Cc2ccccc2C1` [compound 150], the values for the IC50 at human 5-HTT (setting [3]) and on human 5HT1A receptor [2] were 1.91 µM and > 10 µM, respectively.

Regarding `Cc1cc2c(OC[C@H](O)CN3C[C@H]4C/C=C\C[C@@H]3CN4c3ccc4ccccc4c3)cccc2[nH]1` [compound 55], the “h5HT1A Antagonist pIC50” value on human 5HT1A receptor [1] was <5. Also, the “h5HTT pIC50” value at human 5-HTT (Example 77) turned out to be 6.86. The “h5HT1A pIC50” value on human 5HT1A receptor [2] was 6.88.

With `Cc1cc2c(OC[C@@H](O)CN3C[C@@H]4C/C=C\C[C@H]3CN4c3ccc4ccccc4c3)c(F)ccc2[nH]1` [compound 148], the IC50 at human 5HT1A receptor [1] is > 10 µM; on human 5-HTT (setting [3]), 0.0537 µM; at human 5HT1A receptor [2], 0.138 µM.

On to `Cc1cc2c(OC[C@@H](O)CN3C[C@@H]4C/C=C\C[C@H]3CN4c3ccc(Cl)c(Cl)c3)cccc2[nH]1` [compound 135], for which the results for the IC50 on human 5HT1A receptor [1], at human 5-HTT (setting [3]) and at human 5HT1A receptor [2] were 0.813 µM, 0.102 µM and 0.0977 µM, respectively.

For the molecule `COC(=O)c1cc2c(OC[C@@H](O)CN3C[C@@H]4C/C=C\C[C@H]3CN4c3ccc4ccccc4c3)cc(OC)cc2[nH]1` [compound 143], the IC50 on human 5HT1A receptor [1] was > 10 µM; at human 5-HTT (setting [3]) it was 0.174 µM; at human 5HT1A receptor [2], 0.24 µM.

`C1=C\C[C@H]2CN(CCNc3ccccn3)[C@@H](C/1)CN2c1ccc2ccccc2c1` [compound 142]: the IC50 at human 5HT1A receptor [1] was > 10 µM; on human 5-HTT (setting [3]), 0.102 µM; on human 5HT1A receptor [2] it was 9.77 µM.

Turning to `Cc1cc2c(OC[C@@H](O)CN3C[C@@H]4C/C=C\C[C@H]3CN4c3ccc4c(c3)OCCO4)cccc2[nH]1` [compound 159], the IC50 at human 5HT1A receptor [1] was 0.0479 µM; on human 5-HTT (setting [3]), 0.759 µM; at human 5HT1A receptor [2], 0.0107 µM.

`Cc1cc2c(OC[C@@H](O)CN3C[C@@H]4C/C=C\C[C@H]3CN4c3cccc4ncccc34)cccc2[nH]1` [ID No. 136]: on human 5HT1A receptor [1], the IC50 was 0.309 µM.

For the molecule `Cc1cc2c(OC[C@@H](O)CN3C[C@@H]4C/C=C\C[C@H]3CN4c3ccc4ccccc4c3)c(C)ccc2[nH]1` [compound 154], the IC50 is > 10 µM on human 5HT1A receptor [1], 0.055 µM on human 5-HTT (setting [3]) and 0.724 µM at human 5HT1A receptor [2].

As to `Cc1cc2c(OC[C@@H](O)CN3C[C@@H]4C/C=C\C[C@H]3CN4c3cccc4ncccc34)cccc2[nH]1` [compound 157], the IC50 on human 5HT1A receptor [1] was 0.759 µM.

In the case of `O[C@H](COc1cccc2ncccc12)CN1C[C@@H]2C/C=C\C[C@H]1CN2c1ccc2ccccc2c1` [compound 160], the values for the IC50 at human 5HT1A receptor [1], on human 5-HTT (setting [3]) and at human 5HT1A receptor [2] were 0.851 µM, 0.0631 µM and 0.355 µM, respectively.

With `Cn1ccc2c(OC[C@@H](O)CN3C[C@H]4C/C=C\C[C@@H]3CN4c3ccc4ccccc4c3)cccc21` [compound 156], the IC50 on human 5HT1A receptor [1] is > 10 µM; at human 5-HTT (setting [3]) it was 0.0295 µM; on human 5HT1A receptor [2], > 10 µM.

Take `COc1cc2c(cc1OC)C1=NO[C@H](CN3C[C@@H]4C/C=C\C[C@H]3CN4c3ccc4ccccc4c3)C1CO2` (stereo partly drawn) [compound 141]: the IC50 at human 5-HTT (setting [3]) was 0.724 µM; on human 5HT1A receptor [2], > 10 µM.
